Results published in patent publication US6699875B2, “Cascade esters of camptothecins and methods of treating cancer using these compounds” (priority 2002, dated 2004).

Experiments:
[1] = Closed lactone form of CPT in plasma after intrastomach administration in mice; format: in vivo
[2] = Metabolism and pharmacokinetics of camptothecin in human plasma; format: in vitro ADME
[3] = Closed lactone form of CPT in plasma after oral administration in humans; format: in vivo
human malignancies = assay: Clinical responses in Phase I clinical trial patients; format: in vivo; settings: in humans, oral
Text: Clearly, there is a pressing need for a modification which will slow and delay the lactone ring opening upon its entrance into the blood circulation.

[4] = Plasma level of closed lactone form of 9NC after i.s. administration; format: in vivo, mice
human tumor xenografts = settings: in mice; cited from earlier work
[5] = Plasma level of closed lactone form of 9NC after oral administration to Phase I patients; format: in vivo, humans; settings: after oral administration to Phase I clinical trial patients, on average
[6] = sodium carboxylate salt vs closed lactone camptothecin; cited from earlier work

Molecule: 20(S)-camptothecin [CPT]
- closed lactone form, share of the area under the curve [1]: approximately 54%
- half-life time of the drug with lactone intact [2]: 30 min
- metabolite detected [2]: the only metabolite detected is the ring-opened sodium carboxylate salt
- closed lactone form, share of the area under the curve [3]: about 0.4%

Molecule: CC[C@@]1(O)C(=O)OCc2c1cc1n(c2=O)Cc2cc3c([N+](=O)[O-])cccc3nc2-1 [9NC, 9-nitrocamptothecin]
- complete tumor regressions (human malignancies): 2/32
- share of drug present in the plasma in the closed lactone form [4]: 57%
- complete tumor regressions (human tumor xenografts): 32/32
- potency relative to CPT against human tumor xenografts (human tumor xenografts): 2-3 times
- share of drug present in the plasma in the closed lactone form [5]: ~3%

Molecule: CC[C@@](O)(C(=O)[O-])c1cc2n(c(=O)c1CO)Cc1cc3ccccc3nc1-2.[Na+] [sodium carboxylate salt]
- potency relative to native camptothecin with the closed lactone ring intact [6]: 10%
